From ChEMBL document CHEMBL3046332, “Ultrastructural effects of pyridalyl, an insecticidal agent, on epidermal cells of Spodoptera litura larvae and cultured insect cells Sf9” (J Pestic Sci, 2006)
Calls of active or inactive are those of the source. The rule behind the calls is not given here.

Tests used:
Sf9 [1] = experiment: Ultrastructural effect on Spodoptera frugiperda (fall armyworm) sf9 cells assessed as mitochondria with disarranged cristae at 1 uM measured 8 hr by electron microscopy; type: functional, cell-based
Spodoptera litura [2] = experiment: Insecticidal activity against Spodoptera litura larvae assessed as midgut and ganglia at 100 ng measured after 6 hr by ultrastructural analysis/electron microscopy; type: functional, organism-based
Sf9 [3] = experiment: Ultrastructural effect on Spodoptera frugiperda (fall armyworm) sf9 cells assessed as enlarged mitochondria at 1 uM measured 4 to 6 hr by electron microscopy; type: functional, cell-based
Spodoptera litura [4] = experiment: Insecticidal activity against Spodoptera litura larvae assessed as decrease in mobility at 100 ng measured after 4 hr; type: functional, organism-based
Spodoptera litura [5] = experiment: Insecticidal activity against Spodoptera litura larvae assessed as symptoms at 100 ng measured after 2 hr; type: functional, organism-based
Sf9 [6] = experiment: Ultrastructural effect on Spodoptera frugiperda (fall armyworm) sf9 cells assessed as dissociation of polysomes and nuclear swelling at 1 uM measured 4 to 6 hr by electron microscopy; type: functional, cell-based
Spodoptera litura [7] = experiment: Insecticidal activity against Spodoptera litura larvae assessed as diluted Golgi apparatus in epidermal cell at 100 ng measured after 6 hr by ultrastructural analysis/electron microscopy; type: functional, organism-based
Sf9 [8] = experiment: Ultrastructural effect on Spodoptera frugiperda (fall armyworm) sf9 cells assessed as swollen mitochondria at 1 uM measured for 8 hr by electron microscopy; type: functional, cell-based
Spodoptera litura [9] = experiment: Insecticidal activity against Spodoptera litura larvae assessed as diluted rough endoplasmic reticula in epidermal cell at 100 ng measured after 6 hr by ultrastructural analysis/electron microscopy; type: functional, organism-based
Spodoptera litura [10] = experiment: Insecticidal activity against Spodoptera litura larvae assessed as swollen mitochondria in epidermal cell at 100 ng measured after 6 hr by ultrastructural analysis/electron microscopy; type: functional, organism-based
Spodoptera litura [11] = experiment: Insecticidal activity against Spodoptera litura larvae assessed intracytoplasmic ultrastructures of the epidermal cell at 100 ng measured after 2 hr by ultrastructural analysis/electron microscopy; type: functional, organism-based
Spodoptera litura [12] = experiment: Insecticidal activity against Spodoptera litura larvae assessed as condensed nuclei in epidermal cell at 100 ng measured after 4 hr by ultrastructural analysis/electron microscopy; type: functional, organism-based
Spodoptera litura [13] = experiment: Insecticidal activity against Spodoptera litura larvae assessed as condensed and shrunken epidermal cell at 100 ng measured after 6 hr by ultrastructural analysis/electron microscopy; type: functional, organism-based
Sf9 [14] = experiment: Ultrastructural effect on Spodoptera frugiperda (fall armyworm) sf9 cells assessed as decrease in mitochondrial number at 1 uM measured 4 to 6 hr by electron microscopy; type: functional, cell-based
Spodoptera litura [15] = experiment: Insecticidal activity against Spodoptera litura larvae assessed as epidermal cell nuclear change at 100 ng measured after 2 hr by ultrastructural analysis/electron microscopy; type: functional, organism-based
Spodoptera litura [16] = experiment: Insecticidal activity against Spodoptera litura larvae assessed as paralysis at 100 ng measured after 6 hr; type: functional, organism-based
Spodoptera litura [17] = experiment: Insecticidal activity against Spodoptera litura larvae assessed as shorten microvillous projections epidermal cell at 100 ng measured after 6 hr by ultrastructural analysis/electron; type: functional, organism-based
Spodoptera litura [18] = experiment: Insecticidal activity against Spodoptera litura larvae assessed as dorsal aorta at 100 ng measured after 6 hr by ultrastructural analysis/electron microscopy; type: functional, organism-based
Spodoptera litura [19] = experiment: Insecticidal activity against Spodoptera litura larvae assessed as muscular and fat tissues underlying the epidermis at 100 ng measured after 6 hr by ultrastructural analysis/electron microscopy; type: functional, organism-based; conditions: Adipose tissue
Spodoptera litura [20] = experiment: Insecticidal activity against Spodoptera litura larvae assessed as enlarged mitochondria in epidermal cell at 100 ng measured after 4 hr by ultrastructural analysis/electron microscopy; type: functional, organism-based
Sf9 [21] = experiment: Ultrastructural effect on Spodoptera frugiperda (fall armyworm) sf9 cells assessed as low density matrix mitochondria at 1 uM measured 4 to 6 hr by electron microscopy; type: functional, cell-based

## FC(F)(F)c1ccc(OCCCOc2c(Cl)cc(OCC=C(Cl)Cl)cc2Cl)nc1
Sf9 [1]
  Activity: Active
Spodoptera litura [2]
  Activity: inactive
Sf9 [3]
  Activity: Active
Spodoptera litura [4]
  Activity: Active
Spodoptera litura [5]
  Activity: inactive
Sf9 [6]
  Activity: Active
Spodoptera litura [7]
  Activity: Active
Sf9 [8]
  Activity: Active
Spodoptera litura [9]
  Activity: Active
Spodoptera litura [10]
  Activity: Active
Spodoptera litura [11]
  Activity: inactive
Spodoptera litura [12]
  Activity: Active
Spodoptera litura [13]
  Activity: Active
Sf9 [14]
  Activity: Active
Spodoptera litura [15]
  Activity: inactive
Spodoptera litura [16]
  Activity: Active
Spodoptera litura [17]
  Activity: Active
Spodoptera litura [18]
  Activity: inactive
Spodoptera litura [19]
  Activity: inactive
Spodoptera litura [20]
  Activity: Active
Sf9 [21]
  Activity: Active
